Measurements from the NIST ThermoML archive (doi:10.1016/j.jct.2008.05.014).

Assay: xn = mol fraction of the nth substance listed
Conditions: Liquid, Pulse-echo method

CCCCCCCCCCCC [dodecane] + CCCCCCC
Conditions	speed of sound [m/s]
292.85 K, 15200 kPa, x2 = 0.4999	1334.1
292.85 K, 15200 kPa, x2 = 0.97	1263.4
292.85 K, 30390 kPa, x2 = 0.4999	1411.6
292.85 K, 30390 kPa, x2 = 0.97	1348.3
292.85 K, 45590 kPa, x2 = 0.4999	1480.8
292.85 K, 60790 kPa, x2 = 0.4999	1543.7
292.85 K, 60790 kPa, x2 = 0.97	1490.4
292.85 K, 75990 kPa, x2 = 0.4999	1602.4
292.85 K, 75990 kPa, x2 = 0.97	1552
292.85 K, 91180 kPa, x2 = 0.4999	1656.6
292.85 K, 91180 kPa, x2 = 0.97	1609.5
292.85 K, 101320 kPa, x2 = 0.4999	1690.5
292.86 K, 15200 kPa, x2 = 0.5003	1333.8
292.86 K, 15200 kPa, x2 = 0.9391	1268.7
292.86 K, 30390 kPa, x2 = 0.1014	1449.6
292.86 K, 30390 kPa, x2 = 0.5003	1411.4
292.86 K, 30410 kPa, x2 = 0.9391	1352.9
292.86 K, 45590 kPa, x2 = 0.1014	1516.2
292.86 K, 45590 kPa, x2 = 0.5003	1480.8
292.86 K, 45590 kPa, x2 = 0.9391	1427.3
292.86 K, 45590 kPa, x2 = 0.97	1423.1
292.86 K, 60790 kPa, x2 = 0.1014	1577
292.86 K, 60790 kPa, x2 = 0.5003	1543.8
292.86 K, 60790 kPa, x2 = 0.9391	1494.1
292.86 K, 75990 kPa, x2 = 0.1014	1633.6
292.86 K, 75990 kPa, x2 = 0.5003	1602.5
292.86 K, 75990 kPa, x2 = 0.9391	1555.3
292.86 K, 91180 kPa, x2 = 0.1014	1686.1
292.86 K, 91180 kPa, x2 = 0.5003	1656.8
292.86 K, 91180 kPa, x2 = 0.9391	1612.7
292.86 K, 101320 kPa, x2 = 0.1014	1719.2
292.86 K, 101320 kPa, x2 = 0.9391	1647.3
292.86 K, 101320 kPa, x2 = 0.97	1645.4
292.87 K, 15200 kPa, x2 = 0	1384.9
292.87 K, 15200 kPa, x2 = 0.1014	1375.7
292.87 K, 15200 kPa, x2 = 0.3007	1355.3
292.87 K, 15200 kPa, x2 = 0.7007	1306.2
292.87 K, 30390 kPa, x2 = 0	1457.9
292.87 K, 30390 kPa, x2 = 0.3007	1430.9
292.87 K, 30390 kPa, x2 = 0.7007	1386.2
292.87 K, 45590 kPa, x2 = 0	1524.1
292.87 K, 45590 kPa, x2 = 0.3007	1498.8
292.87 K, 45590 kPa, x2 = 0.7007	1457.9
292.87 K, 60790 kPa, x2 = 0	1584.5
292.87 K, 60790 kPa, x2 = 0.3007	1560.6
292.87 K, 60790 kPa, x2 = 0.7007	1522.8
292.87 K, 75990 kPa, x2 = 0	1640.7
292.87 K, 75990 kPa, x2 = 0.3007	1618.5
292.87 K, 75990 kPa, x2 = 0.7007	1582.4
292.87 K, 91180 kPa, x2 = 0	1692.8
292.87 K, 91180 kPa, x2 = 0.3007	1671.5
292.87 K, 91180 kPa, x2 = 0.7007	1638
292.87 K, 101320 kPa, x2 = 0	1725.8
292.87 K, 101320 kPa, x2 = 0.3007	1705.1
292.87 K, 101320 kPa, x2 = 0.5003	1691
292.87 K, 101320 kPa, x2 = 0.7007	1672.6
292.87 K, 101320 kPa, x2 = 0.8496	1658.6
292.88 K, 15200 kPa, x2 = 0.8496	1284
292.88 K, 75990 kPa, x2 = 0.8496	1566.3
292.89 K, 101 kPa, x2 = 0	1299.5
292.89 K, 101 kPa, x2 = 0.3002	1267.5
292.89 K, 101 kPa, x2 = 0.3996	1255
292.89 K, 101 kPa, x2 = 0.6	1226.8
